Assay results: patent publication US11534452B2, “Nucleic acid molecules for reduction of PAPD5 or PAPD7 mRNA for treating hepatitis B infection” (HOFFMANN-LA ROCHE INC., priority 2016, dated 2022)

Columns and labels:
PAPD5 [1] = molecular target: T1, PAPD5 (Homo sapiens, UniProt Q8NDF8); experiment: Y3H ULTImate YChemH 1-by-1 validation (prey fragments, full length proteins); format: binding; conditions: PAPD5 var1 full length; FIG. 2
T1 construct: full length proteins for PAPD5 and PAPD7 were synthesized and used for 1-by-1 validation; expressed in transfected cells; host or cells: diploid yeast (YHGX13 with the prey plasmid mated to YPT6AT with the DHFR hook)
T1 sequence (Q8NDF8 1-698 isoform Q8NDF8-5): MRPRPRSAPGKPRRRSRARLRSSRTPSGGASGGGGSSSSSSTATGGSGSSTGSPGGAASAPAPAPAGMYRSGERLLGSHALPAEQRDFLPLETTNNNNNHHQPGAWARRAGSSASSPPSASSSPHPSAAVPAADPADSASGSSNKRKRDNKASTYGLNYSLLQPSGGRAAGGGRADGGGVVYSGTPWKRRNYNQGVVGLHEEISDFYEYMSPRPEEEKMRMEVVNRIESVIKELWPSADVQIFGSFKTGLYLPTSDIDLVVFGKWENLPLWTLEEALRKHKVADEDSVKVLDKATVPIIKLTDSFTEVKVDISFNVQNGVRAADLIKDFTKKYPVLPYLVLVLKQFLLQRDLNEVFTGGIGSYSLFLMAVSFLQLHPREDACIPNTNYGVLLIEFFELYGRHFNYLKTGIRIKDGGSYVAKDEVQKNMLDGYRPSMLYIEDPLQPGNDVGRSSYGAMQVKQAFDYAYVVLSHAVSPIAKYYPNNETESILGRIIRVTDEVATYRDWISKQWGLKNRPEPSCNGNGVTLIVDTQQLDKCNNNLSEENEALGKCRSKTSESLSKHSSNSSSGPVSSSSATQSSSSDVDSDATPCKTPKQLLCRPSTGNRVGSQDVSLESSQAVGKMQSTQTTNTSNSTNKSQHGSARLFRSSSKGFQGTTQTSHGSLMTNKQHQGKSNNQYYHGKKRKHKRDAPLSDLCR
Method: (§1) In this validation step each one identified fragment prey and one chemical probe (HBX129653, HBX129654) is tested in a 1-by-1 experiment. The plasmids from 3 selected preys from the screening library were extracted from the yeast cells, amplified in E. coli and re-transformed into YHGX13 yeast cells. For each interaction, DO1, 1/10, 1/100 and 1/1000 of the diploid yeast culture expressing both hook and prey constructs were spotted on a selective medium without tryptophan, leucine and histidine and supplemented with the chemical probe and FK506. Interactions were tested in duplicate. One plate was used per chemical compound and concentration (DMSO, 5, 10 and 20 μM of HBX129653, 5, 10 and 20 μM of HBX129654, 5 μM of HBX24786 Trimethoprim (TMP) and 5 μM of HBX129634 (TMP-PEG5-OH)). Plates were incubated at 30° C. for 3 days.
(§2) The coding sequence of full-length PAPD5var1 (NM_001040284.2) and PAPD7varX1 (XM_005248234.2) were reconstituted from an N-terminal codon-optimized gene fragment (to remove high GC content) and commercially available clones of the C-terminal regions of the proteins and cloned in frame with the Gal4 Activation Domain (AD) into plasmid pP7 (AD-Prey), derived from the original pGADGH (Bartel et al., 1993 in Cellular interactions in development: A practical approach. ed. Hartley, D. A., Oxford University Press, Oxford, pp. 153-179). The constructs were checked by sequencing the entire inserts. For each prey, a mini-mating was carried out between YHGX13 (Y187 ade2-101::loxP-kanMX-loxP, mata) transformed with the prey plasmids and YPT6AT yeast cells (mata) transformed with the DHFR hook (Dihydrofolate reductase) to produce a diploid yeast culture. For each interaction, DO1, 1/10, 1/100 and 1/1000 of the diploid yeast culture expressing both hook and prey constructs were spotted on a selective medium without tryptophan, leucine and histidine and supplemented with the chemical probe and FK506. Interactions were tested in duplicate. One plate was used per chemical compound and concentration (DMSO, 5, 10 and 20 μM of HBX129653, 5, 10 and 20 μM of HBX129654, 5 μM of HBX24786 Trimethoprim (TMP) and 5 μM of HBX129634 (TMP-PEG5-OH)). Plates were incubated at 30° C. for 3 days.
(§3) In a first validation step three fragments identified in the first screen were selected for the 1-by-1 validation assay (as described in the Materials and Method section) and tested at three different concentrations ([…]) (Table 11).
(§4) In a second validation step, full length proteins for PAPD5 and PAPD7 were synthesized and used for 1-by-1 validation (as described in the Materials and Method section) with DHQ and THP (Table 12).

PAPD5 [2] = experiment: as above; format: binding, Human; conditions: PAPD5 variant 1 and variant 2 fragments; already at the lowest tested concentration (5 of 5, 10, 20 μM); FIG. 1
Method: as §1, §2, §3, §4

PAPD7 [3] = molecular target: T2, PAPD7 (Homo sapiens, UniProt Q5XG87); experiment: as above; format: binding; conditions: PAPD7 full length; FIG. 2
T2 construct: full length proteins for PAPD5 and PAPD7 were synthesized and used for 1-by-1 validation; expressed in transfected cells; host or cells: diploid yeast (YHGX13 with the prey plasmid mated to YPT6AT with the DHFR hook)
T2 sequence (Q5XG87 whole entry): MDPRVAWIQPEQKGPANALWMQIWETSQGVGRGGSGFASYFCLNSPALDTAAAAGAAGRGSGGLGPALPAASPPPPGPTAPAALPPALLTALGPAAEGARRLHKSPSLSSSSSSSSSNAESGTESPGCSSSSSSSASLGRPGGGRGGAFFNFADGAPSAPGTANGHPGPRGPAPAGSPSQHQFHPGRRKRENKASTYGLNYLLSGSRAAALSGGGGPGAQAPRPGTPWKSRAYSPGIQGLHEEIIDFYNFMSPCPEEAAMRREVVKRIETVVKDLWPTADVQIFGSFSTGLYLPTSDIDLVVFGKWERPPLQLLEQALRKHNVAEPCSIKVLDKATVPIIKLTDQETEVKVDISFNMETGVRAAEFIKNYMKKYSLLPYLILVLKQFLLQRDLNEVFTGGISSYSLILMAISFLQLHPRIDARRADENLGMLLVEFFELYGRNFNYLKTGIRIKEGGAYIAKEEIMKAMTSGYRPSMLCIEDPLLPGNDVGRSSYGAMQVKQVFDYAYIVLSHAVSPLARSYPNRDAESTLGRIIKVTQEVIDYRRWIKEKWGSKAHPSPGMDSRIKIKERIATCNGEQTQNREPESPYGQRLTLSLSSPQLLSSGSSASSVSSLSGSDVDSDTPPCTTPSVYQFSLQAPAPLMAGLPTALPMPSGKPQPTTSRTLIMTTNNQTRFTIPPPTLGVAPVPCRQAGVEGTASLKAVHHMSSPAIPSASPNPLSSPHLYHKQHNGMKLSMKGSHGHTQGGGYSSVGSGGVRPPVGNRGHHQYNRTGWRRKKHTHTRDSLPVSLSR
Method: as §1, §2, §3, §4

PAPD7 [4] = experiment: as above; format: binding, Human; conditions: PAPD7 fragment; already at the lowest tested concentration (5 of 5, 10, 20 μM); FIG. 1
Method: as §1, §2, §3, §4

PAPD5 [5] = molecular target: T1, PAPD5; experiment: Y3H ULTImate YChemH competition with free compound; format: binding; conditions: PAPD5 var1 fragment and full length; probe HBX129653 or HBX129654 1 μM; free compound 0-20 μM; FIG. 3-6
Method: (§5) The competition assays were performed on selective medium at 8 concentrations of the free compound (0, 0.25, 0.5, 1, 2, 5, 10 and 20 μM) and a consistent concentration for the tagged Y3H-compound (1 μM).

PAPD7 [6] = molecular target: T2, PAPD7; experiment: Y3H ULTImate YChemH competition with free compound; format: binding; conditions: PAPD7 varX1 fragment and full length; probe HBX129653 or HBX129654 1 μM; free compound 0-20 μM; FIG. 3-6
Method: as §5

PAPD5 variant 1 = experiment: Y3H ULTImate YChemH screen; format: binding, Human; parameters: key to Confidence score: confidence score of A (scale A-D); conditions: prey PAPD5 variant 1; for # of fragments: cDNA Human placenta library, probe 5 μM (HBX129653), 10 μM (HBX129654)
Method: (§6) The two compounds were provided by Roche to HYBRIGENICS SERVICES SAS and tested for permeability and toxicity. Compounds were then screened against HYBRIGENICS's cDNA Human placenta library (PLA). The screens were carried out according to the optimized cell-to-cell mating protocol developed for Hybrigenics ULTImate Y2H™ using at different compound concentration (Table 6).
(§7) Clones obtained from the screen were picked in 96-well format and clones positive for growth under selective conditions (HIS+) were evaluated in a dependency assay using spot assays. Only clones that were able to grow on selective medium in the presence of the tagged compound were being picked up, processed (cell lysis, PCR, gene sequencing) and mapped for protein alignment using Blast analysis.
(§8) Both proteins PAPD5 (variant 1: NP_001035374; variant 2: NP_001035375) and PAPD7 (XP_005248291) were identified by a numerous number of fragments in the Y3H screen for both compounds (DHQ and THP) as described in the Materials and Method section. The identified proteins were ranked with a confidence score of A (scale A-D) by HYBRIGENICS (Table 10).

PAPD5 variant 2 = experiment: Y3H ULTImate YChemH screen; format: binding, Human; parameters: key to Confidence score: confidence score of A (scale A-D); conditions: prey PAPD5 variant 2; for # of fragments: cDNA Human placenta library, probe 5 μM (HBX129653), 10 μM (HBX129654)
Method: as §6, §7, §8

PAPD7 [7] = experiment: Y3H ULTImate YChemH screen; format: binding, Human; parameters: key to Confidence score: confidence score of A (scale A-D); conditions: prey PAPD7; for # of fragments: cDNA Human placenta library, probe 5 μM (HBX129653), 10 μM (HBX129654); for Confidence score: ranked by HYBRIGENICS
Method: as §6, §7, §8

SMILES	1-by-1 validation, interaction with full length protein (PAPD5 [1])	1-by-1 validation of prey fragments as binders (PAPD5 [2])	1-by-1 validation, interaction with full length protein (PAPD7 [3])	1-by-1 validation of prey fragments as binders (PAPD7 [4])	competition of free compound with the chemical probe (PAPD5 [5])	competition of free compound with the chemical probe (PAPD7 [6])	# of fragments (PAPD5 variant 1)	Confidence score (PAPD5 variant 1; ranked by HYBRIGENICS)	# of fragments (PAPD5 variant 2)	# of fragments (PAPD7 [7])	Confidence score (PAPD7 [7])	Confidence score (PAPD5 variant 2; ranked by HYBRIGENICS)
COc1cc(N2CCc3nc(-c4ncccn4)ncc3[C@H]2C)cc(F)c1F [MOL654]	confirmed at the lowest tested concentration	validated as specific binders	confirmed at the lowest tested concentration	validated as specific binders	competition could be observed	competition could be observed	–	–	–	–	–	–
COCCCOc1cc2c(cc1Cl)-c1cc(=O)c(C(=O)O)cn1[C@H](C(C)C)C2 [MOL653]	confirmed at the lowest tested concentration	validated as specific binders	confirmed at the lowest tested concentration	validated as specific binders	competition could be observed	competition could be observed	–	–	–	–	–	–
COc1cc2c(cc1OCCOCCOCCOCCOCCOCCOc1c(OC)cc(Cc3cnc(N)nc3N)cc1OC)C[C@@H](C(C)(C)C)n1cc(C(=O)O)c(=O)cc1-2 [HBX129653]	–	–	–	–	–	–	28	A	1	12	A	–
COc1cc(Cc2cnc(N)nc2N)cc(OC)c1OCCOCCOCCOCCOCCOCCOc1cc(N2CCc3nc(-c4ncccn4)ncc3[C@H]2C)cc(F)c1F [HBX129654]	–	–	–	–	–	–	5	–	49	24	A	A
